Experimental findings from US20040102442A1, “Remedies for alzheimer's disease” (priority 2000, published 2004) are described below.

The target in the test is T1, Human type-X sPLA2 (Homo sapiens, UniProt O15496).
T1 construct: made in house; host or cells: CHO cells, stably transfected with a pSVL expression vector; culture supernatant used as the enzyme source
T1 sequence (O15496 43-165): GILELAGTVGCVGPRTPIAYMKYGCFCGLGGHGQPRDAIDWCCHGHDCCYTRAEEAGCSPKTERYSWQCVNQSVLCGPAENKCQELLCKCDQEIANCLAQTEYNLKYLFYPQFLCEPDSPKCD
In words: type-X sPLA2 inhibition test (chromogenic assay, diheptanoylthio PC). The class given is biochemical. Particulars: diheptanoylthio PC 1 mM, Triton X-100 0.3 mM, 30 min at 40° C., absorbance at 405 nm. The source says: cDNA sequence encoding human type-X sPLA2 (Cupillard et al., J. Biol. Chem, 1997, 272, 15745-15752) was inserted into the downstream region of the promoter of pSVL SV40 Late Promoter Expression Vector (Amersham Pharmacia Biotech Inc.) that is an expression vector for mammalian cells. The obtained expression vector was transfected into the host CHO cells with a LipofectAMINE reagent (Gibco BRL Inc.) according to the manufacture's instruction to obtain the CHO cells stably expressing human type-X sPLA2. The transfected cell was cultured in A-MEM medium containing 10% fetal calf serum for 3 days and its culture supernatant was used for the measurement of each enzyme activity.
In order to identify and evaluate an inhibitor of type-X sPLA2, the following chromogenic assay is utilized. This assay has been applied for high volume screening using a 96-well microtiterplate. A general explanation for this assay is described in “Analysis of Human Synovial Fluid Phospholipase A2 on Short Chain Phosphatidylcholine-Mixed Micelles: Development of a Spectrophotometric Assay Suitable for a Micortiterplate Reader” (Analytical Biochemistry, 204, pp 190-197, 1992 by Laure. J. Reynolds. Lori L. Hughes and Edward A. Dennis.
Human type-X sPLA2 was incubated (30 min at 40° C. (15 μl/well)) with diheptanoylthio PC (1 mM) in the presence of Triton X-100 (0.3 mM) and 5,5′-dithiobis(2-nitrobenzoic acid) (125 μM) in Tris-HCl buffer (25 mM, pH 7.5) containing CaCl2 (10 mM), KCl (100 mM), and bovine serum albumin (1.0 mg/mL). The changes in the absorbance at 405 nm were measured and the inhibition activities were calculated.
On to `CCc1c(C(=O)C(N)=O)c2c(OCC(=O)O)nc(C)cn2c1Cc1cccc(-c2ccccc2)c1` [Compound 1], for which the IC50 worked out at 10 nM. With `CCc1c(C(=O)C(N)=O)c2c(OCC(=O)O)nc(C)cn2c1Cc1ccccc1Cc1ccccc1` [Compound 2] the figure was 10 nM. With `CCc1c(C(=O)C(N)=O)c2c(OCC(=O)O)nc(-c3ccccc3)cn2c1Cc1ccccc1` [Compound 3] the figure was 5 nM; with `CCCc1c(C(=O)C(N)=O)c2c(OCC(=O)O)nc(C)cn2c1Cc1ccccc1` [Compound 4], 27 nM. With `CCCc1c(C(=O)C(N)=O)c2c(OCC(=O)O)nc(C)cn2c1CC1CCCCC1` [Compound 5] the figure was 12 nM; with `CCc1c(C(=O)C(N)=O)c2c(OCC(=O)O)nc(C3CCCCC3)cn2c1Cc1ccccc1` [Compound 16], 7 nM. Take `CCc1c(C(=O)C(N)=O)c2c(OCC(=O)NS(=O)(=O)c3ccccc3)cccc2n1Cc1ccccc1` [Compound 18]: the IC50 was determined as 16 nM.

As a reminder, the IC50 is the concentration that gives 50% inhibition.
